Columns and labels:
IRAK1 = target: T1, IRAK1 (Homo sapiens, UniProt P51617); assay: RBC HotSpot Kinase Assay, IRAK1; format: biochemical; settings: HotSpot functional assay, isolated kinase enzyme, 33P-ATP
T1 construct: purchased RBC (Reaction Biology) HotSpot assay
Method in brief: (§1)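 Isolated kinases, possibly truncated or lacking regulatory receptor regions, were preincubated with compound for 20 min at room temp in 20 mM Hepes pH 7.5, 10 mM MgCl2, 1 mM EGTA, 2 mM DTT, 1% DMSO. Reactions were started with ^33P-ATP and run 2 h at room temperature; activity was read by P81 filter binding.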

MOLM14 D835Y cells = assay: MOLM14 D835Y cell viability assay (Cell Titer Glo); format: cell-based; settings: Homo sapiens, MOLM-14, 48 h
Experimental: The cell line has activated FLT3 receptors which carry additional resistance mutations in the kinase domain (D835Y).
MOLM14 D835Y cells were grown in RPMI-1640 media supplemented with 20% fetal bovine serum (FBS). […] After cell addition, 23 nL of test compound were transferred into individual wells (22 doses tested for each test compound, with a 1:2 dilution series starting at 10 μM) via a 1536 pin-tool. Bortezomib (final concentration 2.3 μM) was used as a positive control for cell cytotoxicity.

IRAK4 = target: T2, IRAK4 (Homo sapiens, UniProt Q9NWZ3); assay: RBC HotSpot Kinase Assay, IRAK4; format: biochemical; parameters: purchased RBC (Reaction Biology) HotSpot assay; settings: HotSpot functional assay, isolated kinase enzyme, 33P-ATP
T2 sequence (Q9NWZ3 1-460): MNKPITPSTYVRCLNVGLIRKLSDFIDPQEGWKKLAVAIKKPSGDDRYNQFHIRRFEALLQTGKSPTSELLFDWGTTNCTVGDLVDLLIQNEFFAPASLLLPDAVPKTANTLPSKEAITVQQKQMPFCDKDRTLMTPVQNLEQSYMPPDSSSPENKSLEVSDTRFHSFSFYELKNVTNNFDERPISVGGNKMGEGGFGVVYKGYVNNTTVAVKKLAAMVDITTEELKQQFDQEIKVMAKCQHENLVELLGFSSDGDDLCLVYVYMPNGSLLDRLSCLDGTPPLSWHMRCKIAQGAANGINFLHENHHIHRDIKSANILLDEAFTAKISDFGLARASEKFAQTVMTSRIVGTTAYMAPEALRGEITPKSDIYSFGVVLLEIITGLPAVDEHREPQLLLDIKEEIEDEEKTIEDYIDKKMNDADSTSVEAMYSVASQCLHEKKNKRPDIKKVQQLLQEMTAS
Method in brief: as §1

FLT3 = target: T3, FLT3 (Homo sapiens, UniProt P36888); assay: RBC HotSpot Kinase Assay, FLT3; format: biochemical; parameters: purchased RBC (Reaction Biology) HotSpot assay; settings: HotSpot functional assay, isolated kinase enzyme, 33P-ATP
T3 sequence (P36888 27-993): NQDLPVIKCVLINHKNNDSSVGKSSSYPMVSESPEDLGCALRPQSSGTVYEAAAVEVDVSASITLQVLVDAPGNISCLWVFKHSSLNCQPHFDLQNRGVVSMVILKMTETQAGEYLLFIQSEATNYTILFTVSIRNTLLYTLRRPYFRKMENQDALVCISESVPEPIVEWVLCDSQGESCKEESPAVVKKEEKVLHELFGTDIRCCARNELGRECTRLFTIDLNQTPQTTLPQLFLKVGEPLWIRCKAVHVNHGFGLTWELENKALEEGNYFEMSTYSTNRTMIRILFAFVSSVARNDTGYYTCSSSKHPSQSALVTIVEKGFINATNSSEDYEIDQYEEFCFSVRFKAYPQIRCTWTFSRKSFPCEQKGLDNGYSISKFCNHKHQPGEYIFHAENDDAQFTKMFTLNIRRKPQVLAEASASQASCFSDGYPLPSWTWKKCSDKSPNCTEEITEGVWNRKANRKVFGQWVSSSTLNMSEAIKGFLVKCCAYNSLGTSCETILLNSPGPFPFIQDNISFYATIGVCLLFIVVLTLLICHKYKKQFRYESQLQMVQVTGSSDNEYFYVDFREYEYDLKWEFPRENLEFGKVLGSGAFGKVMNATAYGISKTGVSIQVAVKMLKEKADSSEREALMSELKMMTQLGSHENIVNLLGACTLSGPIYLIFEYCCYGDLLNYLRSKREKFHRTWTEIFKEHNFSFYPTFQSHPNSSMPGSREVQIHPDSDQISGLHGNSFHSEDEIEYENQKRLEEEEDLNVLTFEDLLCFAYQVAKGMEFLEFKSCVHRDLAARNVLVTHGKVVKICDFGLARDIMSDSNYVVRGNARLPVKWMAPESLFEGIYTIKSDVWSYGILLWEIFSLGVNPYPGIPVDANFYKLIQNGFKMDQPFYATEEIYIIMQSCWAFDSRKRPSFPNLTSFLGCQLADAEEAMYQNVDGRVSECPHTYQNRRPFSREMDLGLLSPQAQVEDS
Method in brief: as §1

T1 sequence (P51617 whole entry): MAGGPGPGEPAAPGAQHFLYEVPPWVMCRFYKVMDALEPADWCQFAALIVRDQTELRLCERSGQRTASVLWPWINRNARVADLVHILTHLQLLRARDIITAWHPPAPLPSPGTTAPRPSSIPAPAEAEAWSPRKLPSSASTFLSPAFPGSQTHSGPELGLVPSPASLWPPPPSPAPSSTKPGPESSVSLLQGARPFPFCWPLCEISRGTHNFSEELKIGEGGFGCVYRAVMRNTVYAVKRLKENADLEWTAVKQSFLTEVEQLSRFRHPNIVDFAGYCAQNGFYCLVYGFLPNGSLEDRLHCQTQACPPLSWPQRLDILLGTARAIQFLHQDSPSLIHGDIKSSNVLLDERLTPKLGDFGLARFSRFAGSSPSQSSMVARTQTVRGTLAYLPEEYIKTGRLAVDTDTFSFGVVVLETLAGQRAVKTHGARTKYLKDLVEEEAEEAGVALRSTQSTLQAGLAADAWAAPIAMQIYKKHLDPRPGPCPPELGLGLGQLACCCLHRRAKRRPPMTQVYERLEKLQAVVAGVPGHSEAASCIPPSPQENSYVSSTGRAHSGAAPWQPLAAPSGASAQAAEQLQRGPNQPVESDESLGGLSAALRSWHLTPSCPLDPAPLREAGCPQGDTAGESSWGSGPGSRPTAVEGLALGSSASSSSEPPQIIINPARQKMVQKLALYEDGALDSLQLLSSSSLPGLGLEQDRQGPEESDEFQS

Structure (SMILES) | IC50 (IRAK1) [nM] | IC50 (MOLM14 D835Y cells) [nM] | IC50 (IRAK4) [nM] | IC50 (FLT3) [nM]
COc1cc2ncc(-c3ccc(F)c(N[C@H]4CNC[C@@H]4F)n3)n2nc1C(C)(C)O [Compound 5a, 2-(3-(5-fluoro-6-(((3S,4S)-4-fluoropyrrolidin-3-yl)amino)pyridin-2-yl)-7-methoxyimidazo[1,2-b]pyridazin-6-yl)propan-2-ol] | 2670 | 408 | 70 | 7
COc1cc2ncc(-c3ccc(F)c(N[C@@H]4CCCNC4)n3)n2nc1C(C)(C)O [Compound 6a, (R)-2-(3-(5-fluoro-6-(piperidin-3-ylamino)pyridin-2-yl)-7-methoxyimidazo[1,2-b]pyridazin-6-yl)propan-2-ol] | 2850 | 289 | 558 | 9
COc1cc2ncc(-c3nc(N[C@H]4CNC[C@@H]4F)c(F)cc3F)n2nc1C1CCC1 [Compound 13a, 6-(6-cyclobutyl-7-methoxyimidazo[1,2-b]pyridazin-3-yl)-3,5-difluoro-N-((3S,4S)-4-fluoropyrrolidin-3-yl)pyridin-2-amine] | 6 | 58 | 1 | < 0.5
COc1cc2ncc(-c3nc(N[C@@H]4CCCNC4)c(F)cc3F)n2nc1C1CCC1 [Compound 14a, (R)-6-(6-cyclobutyl-7-methoxyimidazo[1,2-b]pyridazin-3-yl)-3,5-difluoro-N-(piperidin-3-yl)pyridin-2-amine] | 12 | 15 | 4 | < 0.5
COc1cc2ncc(-c3cccc(N[C@H]4CNC[C@@H]4F)n3)n2nc1N1CCCC1=O [Compound 25a, 1-(3-(6-(((3S,4S)-4-fluoropyrrolidin-3-yl)amino)pyridin-2-yl)-7-methoxyimidazo[1,2-b]pyridazin-6-yl)pyrrolidin-2-one] | 283 | 1020 | 336 | 1
COc1cc2ncc(-c3cccc(N[C@H]4CNCC[C@@H]4F)n3)n2nc1N1CCCC1=O [Compound 26a, 1-(3-(6-(((3S,4S)-4-fluoropiperidin-3-yl)amino)pyridin-2-yl)-7-methoxyimidazo[1,2-b]pyridazin-6-yl)pyrrolidin-2-one] | 290 | 257 | 237 | 0.9
COc1cc2ncc(-c3ccc(C)c(N[C@H]4CNCC[C@@H]4F)n3)n2nc1C1CC1 [Compound 38a, 6-(6-cyclopropyl-7-methoxyimidazo[1,2-b]pyridazin-3-yl)-N-((3S,4S)-4-fluoropiperidin-3-yl)-3-methylpyridin-2-amine] | > 10000 | 2890 | 7080 | 50
COc1cc2ncc(-c3nc(N[C@H]4CNCC[C@@H]4F)ccc3C)n2nc1C1CC1 [Compound 39a, 6-(6-cyclopropyl-7-methoxyimidazo[1,2-b]pyridazin-3-yl)-N-((3S,4S)-4-fluoropiperidin-3-yl)-5-methylpyridin-2-amine] | 3360 | 129 | 45 | < 0.5
COc1cc2ncc(-c3nc(N[C@@H]4CCCNC4)ccc3C)n2nc1C1CC1 [Compound 40a, (R)-6-(6-cyclopropyl-7-methoxyimidazo[1,2-b]pyridazin-3-yl)-5-methyl-N-(piperidin-3-yl)pyridin-2-amine] | > 10000 | 129 | 18 | < 0.5
COc1cc2ncc(-c3ccc(C)c(N[C@@H]4CCCNC4)n3)n2nc1C1CC1 [Compound 41a, (R)-6-(6-cyclopropyl-7-methoxyimidazo[1,2-b]pyridazin-3-yl)-3-methyl-N-(piperidin-3-yl)pyridin-2-amine] | > 10000 | 1620 | > 10000 | 105
COc1cc2ncc(-c3ccc(C)c(N[C@H]4CNC[C@@H]4F)n3)n2nc1C1CC1 [Compound 42a, 6-(6-cyclopropyl-7-methoxyimidazo[1,2-b]pyridazin-3-yl)-N-((3S,4S)-4-fluoropyrrolidin-3-yl)-3-methylpyridin-2-amine] | > 10000 | 7250 | 8430 | 135
COc1cc2ncc(-c3nc(N[C@H]4CNC[C@@H]4F)ccc3C)n2nc1C1CC1 [Compound 43a, 6-(6-cyclopropyl-7-methoxyimidazo[1,2-b]pyridazin-3-yl)-N-((3S,4S)-4-fluoropyrrolidin-3-yl)-5-methylpyridin-2-amine] | 8270 | 646 | 341 | 0.7
COc1cc2ncc(-c3nc(N[C@@H]4CCCNC4)ccc3F)n2nc1C1CC1 [Compound 44a, (R)-6-(6-cyclopropyl-7-methoxyimidazo[1,2-b]pyridazin-3-yl)-5-fluoro-N-(piperidin-3-yl)pyridin-2-amine] | 62 | 3 | 2 | < 0.5
COc1cc2ncc(-c3ccc(F)c(N[C@H]4CNCC[C@@H]4F)n3)n2nc1C1CC1 [Compound 48a, 6-(6-cyclopropyl-7-methoxyimidazo[1,2-b]pyridazin-3-yl)-3-fluoro-N-((3S,4S)-4-fluoropiperidin-3-yl)pyridin-2-amine] | 169 | 26 | 1 | < 0.5
COc1cc2ncc(-c3ccc(F)c(N[C@@H]4CCCNC4)n3)n2nc1C1CC1 [Compound 49a, (R)-6-(6-cyclopropyl-7-methoxyimidazo[1,2-b]pyridazin-3-yl)-3-fluoro-N-(piperidin-3-yl)pyridin-2-amine] | 449 | 51 | 3 | < 0.5
Fc1cc(F)c(-c2cnc3cc(OCC(F)F)cnn23)nc1N[C@H]1CNC[C@@H]1F [Compound 82a, 6-(7-(2,2-difluoroethoxy)imidazo[1,2-b]pyridazin-3-yl)-3,5-difluoro-N-((3 S,4S)-4-fluoropyrrolidin-3-yl)pyridin-2-amine] | 441 | 204 | 9 | < 0.5
Fc1cc(F)c(-c2cnc3cc(OCC(F)F)cnn23)nc1N[C@@H]1CCCNC1 [Compound 83a, (R)-6-(7-(2,2-difluoroethoxy)imidazo[1,2-b]pyridazin-3-yl)-3,5-difluoro-N-(piperidin-3-yl)pyridin-2-amine] | 1750 | 91 | 53 | 0.5
Fc1cc(F)c(-c2cnc3cc(OCC(F)F)cnn23)nc1N[C@H]1CNCC[C@@H]1F [Compound 84a, 6-(7-(2,2-difluoroethoxy)imidazo[1,2-b]pyridazin-3-yl)-3,5-difluoro-N-((3S,4S)-4-fluoropiperidin-3-yl)pyridin-2-amine] | 849 | 46 | 4 | < 0.5

From patent US20250368648A1, “MULTI-CYCLIC IRAK AND FLT3 INHIBITING COMPOUNDS AND USES THEREOF” (CHILDREN'S HOSPITAL MEDICAL CENTER, priority 2022, published 2025)
